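Tested at 5 concentrations; 48 h exposure; 96-well plates; endpoints linearly interpolated, else capped at highest concentration. TGI: total growth inhibition.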 Where only a bound is given, the exact number is not on record here.

Some test systems named below: RPMI-8226 leukemia; MDA-N; HCT-15 colon; 786-0 renal; ACHN renal; A549 NSCLC; BT-549 breast; SNB-75 CNS; OVCAR-3 ovarian; COLO 205 colon; CCRF-CEM leukemia.
What all share (test): NCI-60 cell line screen, 48 h

Turning to `O=C(c1ccccc1)c1ccc2[nH]c(-c3c(Cl)c(Cl)c(Cl)c(Cl)c3C(=O)N/N=C/c3cccc(Oc4ccccc4)c3)nc2c1`, the TGI in the assay with RPMI-8226 leukemia, in the assay on MDA-N, with HCT-15 colon, with 786-0 renal, with ACHN renal and in the assay on A549 NSCLC was over 100 µM throughout. For the same compound, the TGI with BT-549 breast, in the assay on SNB-75 CNS, with OVCAR-3 ovarian, in the assay with COLO 205 colon and with CCRF-CEM leukemia was over 100 µM each time.
As for `CC(=O)OCC1OC(Nn2c(=O)[nH]c3ccccc3c2=O)C(OC(C)=O)C(OC(C)=O)C1OC(C)=O` (stereo unspecified), the TGI in the assay on RPMI-8226 leukemia, with MDA-N, in the assay on HCT-15 colon, with 786-0 renal, with ACHN renal and in the assay with A549 NSCLC was over 100 µM each time. Also, the TGI with BT-549 breast, in the assay on SNB-75 CNS, in the assay with OVCAR-3 ovarian, in the assay with COLO 205 colon and in the assay with CCRF-CEM leukemia was over 100 µM in each case.
Turning to `O=c1[nH]nc(-c2ccccc2)n1/N=C/c1cccs1`, the TGI with RPMI-8226 leukemia, in the assay with MDA-N, with HCT-15 colon, with 786-0 renal, with ACHN renal and in the assay on A549 NSCLC was over 100 µM each time. For the same compound, the TGI is 95.8 µM in the assay on BT-549 breast; over 100 µM in the assay on SNB-75 CNS; over 100 µM in the assay with OVCAR-3 ovarian; 35.8 µM in the assay with COLO 205 colon; over 100 µM in the assay with CCRF-CEM leukemia.
With `O=c1ccn(COC(COCc2ccccc2)COCc2ccccc2)c(=O)[nH]1`, the TGI in the assay on RPMI-8226 leukemia, in the assay with MDA-N, with HCT-15 colon, in the assay on BT-549 breast, with SNB-75 CNS and with OVCAR-3 ovarian was over 100 µM each time. In addition, the TGI in the assay with COLO 205 colon and in the assay with CCRF-CEM leukemia was over 100 µM each time.
Take `Cc1c2c(c(O)c3c(O)cccc13)C(=O)C1(O)C(O)=C(C(=O)NCNc3ccc(C(N)=O)cn3)C(=O)C(N(C)C)C1C2` (stereo unspecified): the TGI was 7.59 µM with RPMI-8226 leukemia; 98.5 µM with MDA-N; 8.56 µM in the assay on HCT-15 colon; over 100 µM in the assay on 786-0 renal; 23 µM in the assay on A549 NSCLC; 15.5 µM in the assay on BT-549 breast. For the same compound, the TGI with SNB-75 CNS was 9.22 µM; in the assay on OVCAR-3 ovarian it was 6.84 µM; with COLO 205 colon it was over 100 µM; in the assay with CCRF-CEM leukemia, 8.31 µM.
Consider `O=c1[nH]nc(Cc2c[nH]c3ccccc23)o1`, for which the TGI in the assay with RPMI-8226 leukemia, in the assay with MDA-N, in the assay on HCT-15 colon, in the assay with 786-0 renal, in the assay with ACHN renal and in the assay with A549 NSCLC was over 100 µM each time. Also, the TGI with BT-549 breast, in the assay with OVCAR-3 ovarian, in the assay with COLO 205 colon and in the assay on CCRF-CEM leukemia was over 100 µM in each case.
Regarding `C=CCN(C(=O)OC(C)(C)C)[C@H](C)C(=O)N[C@@H](C)C(=O)OC`, the TGI in the assay with RPMI-8226 leukemia, in the assay on MDA-N, with HCT-15 colon, with 786-0 renal, in the assay with ACHN renal and in the assay with A549 NSCLC was over 100 µM each time. Moreover, the TGI in the assay on BT-549 breast, in the assay with OVCAR-3 ovarian, with COLO 205 colon and in the assay on CCRF-CEM leukemia was over 100 µM throughout.
Take `COC1CN(C)C(=Nc2cccc3ccccc23)S1` (stereo unspecified): the TGI with RPMI-8226 leukemia, in the assay with MDA-N, in the assay with HCT-15 colon, in the assay on 786-0 renal, in the assay with ACHN renal and with A549 NSCLC was over 10 µM each time. For the same compound, the TGI with BT-549 breast, in the assay on SNB-75 CNS, with COLO 205 colon and in the assay with CCRF-CEM leukemia was over 10 µM in each case.
In the case of `CCCCCCCCCCCCCCCCCCNC(=S)/N=C\C1=C(O)c2ccccc2C1=O`, the TGI with RPMI-8226 leukemia turned out to be 33.1 µM; in the assay with MDA-N, 31.4 µM; in the assay on HCT-15 colon it was 26.7 µM; in the assay on 786-0 renal, 21.2 µM; in the assay with ACHN renal, 26.2 µM; with A549 NSCLC it was 28 µM. In addition, the TGI is 33.9 µM in the assay with BT-549 breast, 29.1 µM in the assay with OVCAR-3 ovarian, 29.1 µM in the assay on COLO 205 colon and 21.5 µM in the assay with CCRF-CEM leukemia.
For the compound `COc1cc(/C=N/n2c(-c3ccccc3)nn(C(C)=O)c2=O)cc(OC)c1OC`, the TGI in the assay with RPMI-8226 leukemia was 9.59 µM; in the assay on MDA-N, 3.83 µM; in the assay on HCT-15 colon it was over 100 µM; in the assay with 786-0 renal, over 53.1 µM; in the assay with ACHN renal, over 64.6 µM; with A549 NSCLC, over 94.6 µM. The TGI in the assay with BT-549 breast was over 74.2 µM; in the assay with SNB-75 CNS, 21.1 µM; in the assay on COLO 205 colon, 4.55 µM; with CCRF-CEM leukemia, over 100 µM.
Take `Cc1ccc(O)c(C2=CC(c3cccc(Cl)c3)SC(N)=N2)c1` (stereo unspecified): the TGI is 42.6 µM in the assay with RPMI-8226 leukemia; 39.7 µM in the assay with MDA-N; 38.2 µM with HCT-15 colon; over 100 µM in the assay with 786-0 renal; 54.4 µM in the assay on ACHN renal; 62.9 µM in the assay with A549 NSCLC. The TGI in the assay on BT-549 breast is 85 µM; in the assay with OVCAR-3 ovarian, 90.1 µM; in the assay with COLO 205 colon, 39.8 µM; with CCRF-CEM leukemia, 83.1 µM.

Values taken from PubChem BioAssay (NCI).
